Results published in ChEMBL document CHEMBL1212716, “Impact of linker strain and flexibility in the design of a fragment-based inhibitor” (Nat Chem Biol, 2009).

Key:
Uracil-DNA glycosylase [1] = target: T1, Uracil-DNA glycosylase (Homo sapiens, UniProt P13051); assay: Inhibition of human uracil DNA glycosylase using fluorescent DNA substrate
Uracil-DNA glycosylase [2] = target: T1, Uracil-DNA glycosylase; assay: Inhibition of human uracil DNA glycosylase at […] using fluorescent DNA substrate

T1 sequence (P13051 whole entry): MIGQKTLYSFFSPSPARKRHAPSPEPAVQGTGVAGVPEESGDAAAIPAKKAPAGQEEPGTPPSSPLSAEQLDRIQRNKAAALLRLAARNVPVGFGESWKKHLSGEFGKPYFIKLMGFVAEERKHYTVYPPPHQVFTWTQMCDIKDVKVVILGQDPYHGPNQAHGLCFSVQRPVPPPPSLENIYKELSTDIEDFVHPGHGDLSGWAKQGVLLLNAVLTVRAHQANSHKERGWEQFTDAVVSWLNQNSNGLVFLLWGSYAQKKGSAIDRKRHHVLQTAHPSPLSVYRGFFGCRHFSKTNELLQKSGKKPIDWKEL

| Compound | Ki (Uracil-DNA glycosylase [1]) | inhibition (Uracil-DNA glycosylase [2]) |
| --- | --- | --- |
| NCCCO/N=C/c1cc(=O)[nH]c(=O)[nH]1 | 0.75 mM | – |
| O=Cc1cccc(C(=O)O)c1 [3-FORMYLBENZOIC ACID] | 10 mM | – |
| NOCCCNCc1cc(=O)[nH]c(=O)[nH]1 | 0.7 mM | – |
| NOCCCNCc1cccc(C(=O)O)c1 | 16 mM | 18% |
| NCCCO/N=C/c1cccc(C(=O)O)c1 | 10 mM | 25% |
